Consider 13 compounds from patent publication EP4678638A1, “NEW E3 UBIQUITIN LIGASE LIGAND, PROTEIN DEGRADATION AGENT AND USE THEREOF” (priority 2023, dated 2024).

Assay type in all cases: cell-based, Human
The test system of one assay is EGFR. In words: Western blot degradation of EGFR (H1975 Cell). Conditions: Table D2. In a few lines: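 After compound exposure, cells were harvested and lysates run on SDS-PAGE, transferred to nitrocellulose and probed with antibodies. Remaining target (%) was computed from band grayscale relative to an internal control protein and normalised; degradation (%) was 100% minus that.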

The next assay deals with H1975. The assay is described as follows: CCK-8 proliferation, NCI-H1975 (H1975). Conditions: read-out: Inhibitory activity (IC50) on tumor cell proliferation, H1975. In outline:
(§1)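 Tumor cells were cultured at 37°C with 5% CO2, seeded, and after 24h treated with compounds at 10 concentrations starting at 10µM (5-fold serial dilutions).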

A further assay has as its system PC-9. In words: CCK-8 proliferation, PC-9. The conditions noted are these: read-out: Inhibitory activity (IC50) on tumor cell proliferation, PC-9. In outline: as §1
Assay [1] concerns H1975-1µM Osimertinib cells. The assay is described as follows: CCK-8 proliferation, osimertinib-resistant H1975 cells. As to the method:
(§2) The tumor cells used herein were cultured in a cell culture medium listed in table A1 at 37°C in an incubator with 5% CO2. Prior to experimentation, all cell lines used were correctly identified by STR profiling, and tested negative for mycoplasma contamination using a mycoplasma detection kit through routine screenings. Table A1. Tumor cells and cell culture medium used in the present disclosure
(§3) IC50 values of the compounds of the present disclosure (including the compounds in Table 1, and compounds of examples) were measured using the Meilun Cell Counting Kit-8 kit from Dalian Meilun Biotech Co., Ltd. Assay details are as follows: tumor cells were seeded in a 96-well plate at a density listed in Table A2. After 24h, 100 µL of the inoculated cells were treated with 0.5µL of the compounds of the present disclosure (including the compounds in Tables 1 and 2, and compounds of examples) at 10 different successively decreasing concentrations (starting at the highest concentration of 10µM; 5-fold serial dilutions). After the cells were treated with the compounds of the present disclosure for a period of time, the cell viability detection reagent was added to the culture medium for cell viability assessment according to the instructions provided with the CCK-8 kit. […] The growth inhibition of the compounds of the present disclosure on cells was plotted by Prism Graphpad software, and the IC50 values of the compounds of the present disclosure were calculated therefrom. […] Seeding protocol and treatment time for tumor cells

In another assay the test system is HCC827. The assay is described as follows: CCK-8 proliferation, HCC827. The conditions noted are these: read-out: Inhibitory activity (IC50) on tumor cell proliferation, HCC827. The procedure:
as §2, §3

[2] abbreviates: Homo sapiens, NCI-H1975, CCK-8, 96 hours.
[3] abbreviates: Homo sapiens, PC-9, CCK-8, 96 hours.
The mark [4] stands for this setting: Homo sapiens, NCI-H1975, CCK-8, osimertinib-resistant H1975 cells obtained by treating H1975 cells with 1 µM Osimertinib for 3 months, read-out: Inhibitory activity (IC50) on tumor cell proliferation, H1975-1µm Osimertinib.
[5] abbreviates: Homo sapiens, HCC827, CCK-8, 96 hours.

Like-named read-outs stand apart in the source and are kept apart here. A value given as a limit tells only on which side of the number the result lay.

Regarding `O=C1CCC(c2ccc(CN3CCN(C4CCN(c5ccc(Nc6ncc7nc(Nc8ccccc8)n(C8CCCC8)c7n6)cc5)CC4)CC3)cc2)C(=O)N1` (stereo not shown) [GT-05915, 3-(4-((4-(1-(4-((9-cyclopentyl-8-(phenylamino)-9H-purin-2-yl)amino)phenyl)piperidin-4-yl)piperazin-1-yl)methyl)phenyl)piperidine-2,6-dione], the “Degradation of substrate protein EGFR (substrate protein remaining %)” value (“Degradation … (substrate protein remaining %)” for short) in the assay with EGFR is listed as “A (A is defined as 0% ≤ substrate protein remaining % ≤ 80%)”. Besides, the IC50 was 50 to 100 nM in the assay on H1975 (setting [2]), 1 to 10 nM in the assay with PC-9 (setting [3]), 500 to 1000 nM in assay [1] (setting [4]) and 1 to 10 nM in the assay on HCC827 (setting [5]).

Turning to `COc1cc(N2CCC(N(C)Cc3ccc(C4CCC(=O)NC4=O)cc3)CC2)c(C)cc1Nc1ncc(Br)c(Nc2ccc3nccnc3c2P(C)(C)=O)n1` (stereo not shown) [GT-03930, 3-(4-(((1-(4-((5-bromo-4-((5-(dimethylphosphoryl)quinoxalin-6-yl)amino)pyrimidin-2-yl)amino)-5-methoxy-2-methylphenyl)piperidin-4-yl)(methyl)amino)methyl)phenyl)piperidine-2,6-dione], the IC50 with H1975 (setting [2]) lay in the range of 50 to 100 nM; in the assay on PC-9 (setting [3]), 100 to 500 nM; in assay [1] (setting [4]), 500 to 1000 nM; with HCC827 (setting [5]), 100 to 500 nM.

For the compound `CC(C)n1nc(N2CCC(N3CCN(Cc4cccc(N5CCC(=O)NC5=O)c4)CC3)CC2)c2cnc(Nc3ccnc(-c4cnn(S(=O)(=O)C5CC5)c4)n3)cc21` [GT-06080, 1-(3-((4-(1-(6-((2-(1-(cyclopropylsulfonyl)-1H-pyrazol-4-yl)pyrimidin-4-yl)amino)-1-isopropyl-1H-pyrazolo[4,3-c]pyridin-3-yl)piperidin-4-yl)piperazin-1-yl)methyl)phenyl)dihydropyr imidine-2,4(1H,3H)-dione], the IC50 (with PC-9 (setting [3]); in assay [1] (setting [4])) was 500 to 1000 nM throughout.

In the case of `COc1cc(N2CCC(N(C)Cc3ccc(N4CCC(=O)NC4=O)cn3)CC2)c(C)cc1Nc1ncc(Br)c(Nc2ccc3nccnc3c2P(C)(C)=O)n1` [GT-05952, 1-(6-(((1-(4-((5-bromo-4-((5-(dimethylphosphoryl)quinoxalin-6-yl)amino)pyrimidin-2-yl)amino)-5-methoxy-2-methylphenyl)piperidin-4-yl)(methyl)amino)methyl)pyridin-3-yl)dihydropyrimidine-2,4(1H,3H)-dione], the “Degradation … (substrate protein remaining %)” value with EGFR was “A (A is defined as 0% ≤ substrate protein remaining % ≤ 80%)”. The IC50 lay within 100 to 500 nM with PC-9 (setting [3]), 500 to 1000 nM in assay [1] (setting [4]) and 500 to 1000 nM with HCC827 (setting [5]).

For the compound `COc1cc(N2CCC(N(C)Cc3ccc(N4CCC(=O)NC4=O)cc3)CC2)c(C)cc1Nc1ncc(Br)c(Nc2ccc3nccnc3c2P(C)(C)=O)n1` [GT-05951, 1-(4-(((1-(4-((5-bromo-4-((5-(dimethylphosphoryl)quinoxalin-6-yl)amino)pyrimidin-2-yl)amino)-5-methoxy-2-methylphenyl)piperidin-4-yl)(methyl)amino)methyl)phenyl)dihydropyrimidine-2,4(1H,3H)-dione], the “Degradation … (substrate protein remaining %)” value with EGFR is on record as “A (A is defined as 0% ≤ substrate protein remaining % ≤ 80%)”. Moreover, the IC50 in the assay with PC-9 (setting [3]) lay within 100 to 500 nM; in assay [1] (setting [4]), 500 to 1000 nM.

For `O=C1CCN(c2ccc(CN3CCN(C4CCN(c5ccc(NC6=NC=C7N=C(Nc8ccccc8)N(C8CCCC8)C7N6)cc5)CC4)CC3)cn2)C(=O)N1` (stereo not shown) [GT-05942, 1-(5-((4-(1-(4-((9-cyclopentyl-8-(phenylamino)-4,9-dihydro-3H-purin-2-yl)amino)phenyl)piperidin-4-yl)piperazin-1-yl)methyl)pyridin-2-yl)dihydropyrimidine-2,4(1H,3H)-dione], the “Degradation … (substrate protein remaining %)” value with EGFR is recorded as “A (A is defined as 0% ≤ substrate protein remaining % ≤ 80%)”. For the same compound, the results for the IC50 (with PC-9 (setting [3]); in assay [1] (setting [4]); in the assay on HCC827 (setting [5])) were 1 to 10 nM, 500 to 1000 nM and 10 to 50 nM, respectively.

Turning to `CC(C)n1nc(N2CCC(N(C)Cc3ccc(N4CCC(=O)NC4=O)cc3)CC2)c2cnc(Nc3ccnc(-c4cnn(S(=O)(=O)C5CC5)c4)n3)cc21` [GT-06021, 1-(4-(((1-(6-((2-(1-(cyclopropylsulfonyl)-1H-pyrazol-4-yl)pyrimidin-4-yl)amino)-1-isopropyl-1H-pyrazolo[4,3-c]pyridin-3-yl)piperidin-4-yl)(methyl)amino)methyl)phenyl)dihydropyrimidine-2,4(1H,3H)-dione], in the assay on EGFR, the “Degradation … (substrate protein remaining %)” value is on record as “A (A is defined as 0% ≤ substrate protein remaining % ≤ 80%)”. Moreover, the results for the IC50 (in the assay on PC-9 (setting [3]); in assay [1] (setting [4]); with HCC827 (setting [5])) were 100 to 500 nM, 500 to 1000 nM and 100 to 500 nM, respectively.

`CC(C)n1nc(N2CCC(N3CCN(Cc4ccc(N5CCC(=O)NC5=O)nc4)CC3)CC2)c2cnc(Nc3ccnc(-c4cnn(S(=O)(=O)C5CC5)c4)n3)cc21` [GT-06082, 1-(5-((4-(1-(6-((2-(1-(cyclopropylsulfonyl)-1H-pyrazol-4-yl)pyrimidin-4-yl)amino)-1-isopropyl-1H-pyrazolo[4,3-c]pyridin-3-yl)piperidin-4-yl)piperazin-1-yl)methyl)pyridin-2-yl)dihydropyrimidine-2,4(1H,3H)-dione]: the IC50 in the assay with H1975 (setting [2]) is 100 to 500 nM; with PC-9 (setting [3]), 100 to 500 nM; in assay [1] (setting [4]) it was 10 to 50 nM.

For the compound `O=C1CCC(Nc2cccc(CN3CCN(C4CCN(c5ccc(-c6cc(F)c7c(c6)C(=O)N(C(C(=O)Nc6nccs6)c6ncn8c6CCC8)C7)cc5)CC4)CC3)c2)C(=O)N1` (stereo not shown) [GT-06247, 2-(6,7-dihydro-5H-pyrrolo[1,2-c]imidazol-1-yl)-2-(6-(4-(4-(4-(3-((2,6-dioxopiperidin-3-yl)amino)benzyl)piperazin-1-yl)piperidin-1-yl)phenyl)-4-fluoro-1-oxoisoindolin-2-yl)-N-(thiazol-2-yl)acetamide], the “Degradation … (substrate protein remaining %)” value with EGFR was “A (A is defined as 0% ≤ substrate protein remaining % ≤ 80%)”. The results for the IC50 (with H1975 (setting [2]); in assay [1] (setting [4])) were 10 to 50 nM and 50 to 100 nM, respectively.

As for `C=CC(=O)Nc1cc(Nc2nccc(-c3cn(C)c4ccccc34)n2)c(OC)cc1N(C)CCN(C)C` [osimertinib, reference compound], the IC50 is 100 to 500 nM with H1975 (Homo sapiens, NCI-H1975, 96 h); 10 to 50 nM in the assay on PC-9 (Homo sapiens, PC-9, 96 h); more than 10000 nM in assay [1] (Homo sapiens, NCI-H1975, read-out: Inhibitory activity (IC50) on tumor cell proliferation, H1975-1µm Osimertinib); 10 to 50 nM with HCC827 (Homo sapiens, HCC827, 96 h).

Turning to `COc1cc(N2CCC(N3CCN(CCC#Cc4cccc5c4CN(C4CCC(=O)NC4=O)C5=O)CC3)CC2)ccc1Nc1ncc(Cl)c(Nc2ccccc2P(C)(C)=O)n1` (stereo not shown) [HJM-561, reference compound], the IC50 in the assay with H1975 (CCK-8, 96 hours) lay within 50 to 100 nM; with PC-9 (CCK-8, 96 hours), 100 to 500 nM; in assay [1] (CCK-8, osimertinib-resistant H1975 cells obtained by treating H1975 cells with 1 µM Osimertinib for 3 months, read-out: Inhibitory activity (IC50) on tumor cell proliferation, H1975-1µm Osimertinib), 1000 to 5000 nM; with HCC827 (CCK-8, 96 hours) it was 500 to 1000 nM.

As for `CC(C)n1nc(N2CCC(N(C)Cc3ccc(C4CCC(=O)NC4=O)cc3)CC2)c2cnc(Nc3ccnc(-c4cnn(S(=O)(=O)C5CC5)c4)n3)cc21` (stereo not shown) [GT-06020, 3-(4-(((1-(6-((2-(1-(cyclopropylsulfonyl)-1H-pyrazol-4-yl)pyrimidin-4-yl)amino)-1-isopropyl-1H-pyrazolo[4,3-c]pyridin-3-yl)piperidin-4-yl)(methyl)amino)methyl)phenyl)piperidine-2,6-dione], the IC50 lay in the range of 50 to 100 nM in the assay with PC-9 (setting [3]), 100 to 500 nM in assay [1] (setting [4]) and 100 to 500 nM in the assay on HCC827 (setting [5]).

For `O=C1CCN(c2ccc(CN3CCN(C4CCN(c5ccc(-c6cc(F)c7c(c6)C(=O)N(C(C(=O)Nc6nccs6)c6ncn8c6CCC8)C7)cc5)CC4(F)F)CC3)cn2)C(=O)N1` (stereo not shown) [GT-06320, 2-(6,7-dihydro-5H-pyrrolo[1,2-c]imidazol-1-yl)-2-(6-(4-(4-(4-((6-(2,4-dioxotetrahydropyrimidin-1(2H)-yl)pyridin-3-yl)methyl)piperazin-1-yl)-3,3-difluoropiperidin-1-yl)phenyl)-4-fluoro-1-oxoisoindolin-2-yl)-N-(thiazol-2-yl)acetamide], the “Degradation … (substrate protein remaining %)” value in the assay on EGFR was “A (A is defined as 0% ≤ substrate protein remaining % ≤ 80%)”. Moreover, the IC50 in the assay with H1975 (setting [2]) lay within 1 to 10 nM; in assay [1] (setting [4]), 500 to 1000 nM.
